Experimental data as given in patent US20080131534A1, “USE OF A PLANT EXTRACT OR PLANT JUICE” (Melbrosin International Produktions- und Vertriebs GesmbH & …, priority 2006, published 2008).

Molecular target: T1, PPAR-gamma (Homo sapiens, UniProt P37231)
T1 construct: purchased Invitrogen
T1 sequence (P37231 238-503 limits assumed): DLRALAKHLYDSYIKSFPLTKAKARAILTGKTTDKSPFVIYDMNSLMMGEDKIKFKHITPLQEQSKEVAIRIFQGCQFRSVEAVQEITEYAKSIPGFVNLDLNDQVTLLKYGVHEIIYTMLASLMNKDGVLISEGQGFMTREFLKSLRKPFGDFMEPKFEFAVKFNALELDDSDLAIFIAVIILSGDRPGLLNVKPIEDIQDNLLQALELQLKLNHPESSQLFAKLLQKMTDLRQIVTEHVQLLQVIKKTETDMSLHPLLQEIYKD
Test: Polar Screen PPAR Competitive Assay (fluorescence polarization ligand binding)
Conditions: not given

| SMILES | EC50 |
| --- | --- |
| O=C(/C=C/c1ccccc1)c1ccccc1O [2′-Hydroxychalcone] | 20 µM |
| O=c1c(-c2ccc(O)cc2)coc2cc(O)cc(O)c12 [Genistein] | 22 µM |
| O=C(O)c1cc(O)c(O)c(O)c1 [Gallic acid] | 128 µM |
| C=CCc1ccc2c(c1)OCO2 [Safrol] | 2250 µM |

Same assay, conditions: EC50, Table 1, tested substances

| SMILES | EC50 |
| --- | --- |
| Cc1ccc(C(C)C)c(O)c1 [Thymol] | 695 µM |

Same assay, conditions: EC50, Table 3, active substances in Oregano

| SMILES | EC50 |
| --- | --- |
| Cc1ccc(C(C)C)c(O)c1 [Thymol] | 695 µM |

Same assay, conditions: Table 1, result in words

| SMILES | EC50 |
| --- | --- |
| O=c1c(O[C@@H]2O[C@H](CO)[C@H](O)[C@H](O)[C@H]2O)c(-c2ccc(O)c(O)c2)oc2cc(O)cc(O)c12 [Hyperoside] | does not bind |
| COc1cc(/C=C/C(=O)CC(=O)/C=C/c2ccc(O)c(OC)c2)ccc1O [Curcumin] | does not bind |
| O=C(/C=C/c1ccccc1)c1ccccc1O [2′-OH-Chalcone] | does not bind |
| c1cc2c(cc1[C@H]1OC[C@H]3[C@@H]1CO[C@@H]3c1ccc3c(c1)OCO3)OCO2 [Sesamin] | does not bind |
| COc1cc(/C=C/C(=O)O)ccc1O [Ferrulic acid] | does not bind |

Same assay, conditions: Table 1, result in words; *tested to a concentration of 0.1 M

| SMILES | EC50 |
| --- | --- |
| COc1ccc(-c2coc3cc(O)ccc3c2=O)cc1 [Formononetin] | does not bind* |
| O=c1c(-c2ccc(O)cc2)coc2cc(O[C@@H]3O[C@H](CO)[C@@H](O)[C@H](O)[C@H]3O)cc(O)c12 [Genistin] | does not bind* |
| COc1ccc(-c2coc3cc(O[C@@H]4O[C@H](CO)[C@@H](O)[C@H](O)[C@H]4O)cc(O)c3c2=O)cc1 [Sissotrin] | does not bind* |
| C=CC(C)=CCC=C(C)C [Ocimene] | does not bind* |
| O=c1c(-c2ccc(O)cc2)coc2cc(O[C@@H]3O[C@H](CO)[C@@H](O)[C@H](O)[C@H]3O)ccc12 [Daidzin] | does not bind* |
| C=C1CC/C=C(\C)CC[C@@H]2[C@@H]1CC2(C)C [β-Caryophyllene] | does not bind* |
| O=C(O)/C=C/c1ccccc1O [o-Coumaric acid] | does not bind* |
| C[C@]12CC[C@@H]3c4ccc(O)cc4CC[C@H]3[C@@H]1CCC2=O [Estron] | does not bind* |
| C/C1=C\CC/C(C)=C/CC(C)(C)/C=C/C1 [α-Humulene] | does not bind* |
| CCCCCC(C)=O [2-Heptanon] | does not bind* |
| O=C(O)/C=C/c1ccc(O)c(O)c1 [Caffeic acid] | does not bind* |
| C=CCSCC=C [Diallylsulfide] | does not bind* |
| COc1ccc(-c2coc3cc(O[C@@H]4O[C@H](CO)[C@@H](O)[C@H](O)[C@H]4O)ccc3c2=O)cc1 [Ononin] | does not bind* |
| O=c1c(-c2ccc(O)cc2)coc2c([C@@H]3O[C@H](CO)[C@@H](O)[C@H](O)[C@H]3O)c(O)ccc12 [Puerarin] | does not bind* |
| COc1ccc(-c2cc(=O)c3c(O)cc(O[C@@H]4O[C@H](CO[C@@H]5O[C@@H](C)[C@H](O)[C@@H](O)[C@H]5O)[C@@H](O)[C@H](O)[C@H]4O)cc3o2)cc1O [Diosmin] | does not bind* |
| O=C(O)c1ccc(O)c(O)c1 [Protocatechuic acid] | does not bind* |
| C=CC(C)(O)CCC=C(C)C (stereo not shown) [Linalool] | does not bind* |
| COc1cc(O)c2c(=O)c(-c3ccc(O)cc3)coc2c1 [Prunetin] | does not bind* |
| Cc1ccc(C(C)C)cc1 [p-Cymene] | does not bind* |
| Oc1cc(O)c2c(c1)O[C@H](c1ccc(O)c(O)c1)[C@H](O)[C@H]2c1c(O)cc(O)c2c1O[C@H](c1ccc(O)c(O)c1)[C@H](O)C2 [Procyanidin B2] | does not bind* |

Same assay, conditions: Table 1, tested substances; read-out: EC50

| SMILES | EC50 |
| --- | --- |
| COc1ccc([C@@H]2CC(=O)c3c(O)cc(O[C@@H]4O[C@H](CO[C@@H]5O[C@@H](C)[C@H](O)[C@@H](O)[C@H]5O)[C@@H](O)[C@H](O)[C@H]4O)cc3O2)cc1O [Hesperidin] | > 500 µM |
| O=c1oc2cc(O)ccc2c2oc3cc(O)ccc3c12 [Coumestrol] | 8.5 µM |
| COc1ccc(-c2coc3cc(O)cc(O)c3c2=O)cc1 [Biochanin A] | 20 µM |
| O=c1c(O)c(-c2ccc(O)cc2)oc2cc(O)cc(O)c12 [Kaempferol] | 467 µM |
| OC[C@H](Cc1cccc(O)c1)[C@H](CO)Cc1cccc(O)c1 [Enterodiol] | > 500 µM |
| CC(C(=O)c1ccc(O)cc1O)c1ccc(O)cc1 (stereo not shown) [ODMA, O-Desmethyl-angolenain] | 67 µM |
| O=CC=Cc1ccccc1 [Cinnamaldehyde] | 10.4 µM |
| O=c1cc(-c2ccc(O)c(O)c2)oc2cc(O)cc(O)c12 [Luteolin] | 4 µM |
| O=C(/C=C/c1ccccc1O)c1ccccc1 [2-Hydroxychalcone] | 2.9 µM |
| CCOC(=O)C=Cc1ccccc1 [Ethylcinnamate] | 2700 µM |
| O=C1C[C@@H](c2ccc(O)c(O)c2)Oc2cc(O)cc(O)c21 [Eriodictyol] | 66 µM |
| O=c1cc(-c2ccc(O)cc2)oc2cc(O)cc(O)c12 [Apigenin] | 104 µM |
| COc1cc(CNC(=O)CCCC/C=C/C(C)C)ccc1O [Capsaicin] | > 500 µM |
| Oc1cc(O)c2c(c1)O[C@H](c1ccc(O)c(O)c1)[C@H](O)C2 [Epicatechin] | > 500 µM |
| O=C(O)/C=C/c1ccc(O)cc1 [p-Coumaric acid] | > 500 µM |
| O=C(Nc1ccccc1)c1cc([N+](=O)[O-])ccc1Cl [CW9662, 2-Chloro-5-nitrobenanilide, reference compound] | 0.0107 µM |
| C=CCc1ccc(O)c(OC)c1 [Eugenol] | 420 µM |
| O=c1c(O)c(-c2cc(O)c(O)c(O)c2)oc2cc(O)cc(O)c12 [Myricetin] | 53 µM |
| O=c1c(O)c(-c2ccccc2)oc2cc(O)cc(O)c12 [Galangin] | 143 µM |
| O=c1c(O)c(-c2ccc(O)c(O)c2)oc2cc(O)cc(O)c12 [Quercetin] | 2.6 µM |
| OCc1c[nH]c2ccccc12 [Indol-3-Carbinol] | > 500 µM |
| Oc1ccc([C@H]2COc3cc(O)ccc3C2)cc1 [Equol] | 60 µM |
| O=C(CCc1ccc(O)cc1)c1c(O)cc(O)cc1O [Phloretin] | 20 µM |
| O=C(/C=C/c1ccc(O)c(O)c1)O[C@H](Cc1ccc(O)c(O)c1)C(=O)O [Rosmarinic acid] | 7.8 µM |
| O=C1OC[C@H](Cc2cccc(O)c2)[C@H]1Cc1cccc(O)c1 [Enterolacton] | > 500 µM |
| O=c1c(OC2OC(CO)C(O)C(O)C2O)c(-c2ccc(O)c(O)c2)oc2cc(O)cc(O)c12 (stereo not shown) [Isoquercetrin] | 52 µM |
| O=c1c(O)c(-c2ccccc2)oc2ccccc12 [3-Hydroxyflavon] | > 500 µM |
| O=C(CCc1ccc(O)cc1)c1c(O)cc(O)cc1O[C@@H]1O[C@H](CO)[C@@H](O)[C@H](O)[C@H]1O [Phloridzin] | > 500 µM |
| O=c1c(-c2ccc(O)cc2)coc2cc(O)ccc12 [Daidzein] | 470 µM |

Same assay, conditions: Table 3, active substances in Oregano; read-out: EC50

| SMILES | EC50 |
| --- | --- |
| COc1cc(C(=O)O)ccc1O [Vanillic acid] | > 500 µM |
| COc1ccc(-c2coc3cc(O)cc(O)c3c2=O)cc1 [Biochanin A] | 20 µM |
| O=c1cc(-c2ccc(O)cc2)oc2c([C@@H]3O[C@H](CO)[C@@H](O)[C@H](O)[C@H]3O)c(O)cc(O)c12 [Vitexin] | 156 µM |
| O=c1c(O)c(-c2ccc(O)cc2)oc2cc(O)cc(O)c12 [Kaempferol] | 467 µM |
| O=c1cc(-c2ccc(O)c(O)c2)oc2cc(O)cc(O)c12 [Luteolin] | 4 µM |
| O=C1C[C@@H](c2ccc(O)c(O)c2)Oc2cc(O)cc(O)c21 [Eriodictyol] | 66 µM |
| O=c1cc(-c2ccc(O)cc2)oc2cc(O)cc(O)c12 [Apigenin] | 104 µM |
| O=C(O)/C=C/c1ccc(O)cc1 [p-Coumaric acid] | > 500 µM |
| O=c1c(O)c(-c2ccc(O)c(O)c2)oc2cc(O)cc(O)c12 [Quercetin] | 2.6 µM |
| C[C@H]1[C@H](C)CC[C@]2(C(=O)O)CC[C@]3(C)C(=CC[C@@H]4[C@@]5(C)CC[C@H](O)C(C)(C)[C@@H]5CC[C@]43C)[C@H]12 [Ursolsäure] | > 500 µM |
| O=C1c2c(O)cc(O)cc2O[C@H](c2ccc(O)c(O)c2)[C@H]1O [Taxifolin] | 275 µM |
| O=C(/C=C/c1ccc(O)c(O)c1)O[C@H](Cc1ccc(O)c(O)c1)C(=O)O [Rosmarinic acid] | 7.8 µM |
| O=c1c(OC2OC(CO)C(O)C(O)C2O)c(-c2ccc(O)c(O)c2)oc2cc(O)cc(O)c12 (stereo not shown) [Isoquercetrin] | 53 µM |
| O=c1cc(-c2ccc(O)cc2)oc2cc(OC3O[C@H](CO)[C@@H](O)[C@H](O)[C@H]3O)cc(O)c12 (stereo partly shown) [Apigenin-7Glycoside] | > 500 µM |
| O=C(/C=C/c1ccc(O)c2c1[C@H](C(=O)O[C@H](Cc1ccc(O)c(O)c1)C(=O)O)[C@@H](c1ccc(O)c(O)c1)O2)O[C@H](Cc1ccc(O)c(O)c1)C(=O)O [Salvianolic acid B] | 292 µM |
| O=C1C[C@@H](c2ccc(O)cc2)Oc2cc(O)cc(O)c21 [Narigenin] | 81 µM |
